Assay results from patent US10004730B2, “Small molecules targeting androgen receptor nuclear localization and/or level in prostate cancer” (University of Pittsburgh-Of the Commonwealth System of …, priority 2011, dated 2018).

How the values were obtained:
Assay type in all cases: cell-based
22Rv1 cells = experiment: BrdU incorporation, 22Rv1; conditions: 22Rv1, 48 hrs
Description: (§1) FIGS. 14A-F. Effect of SID 3712502 at indicated concentrations on BrdU incorporation in cultured AR-positive LNCaP (FIG. 14A), C4-2 (FIG. 14B), 22Rv1 (FIG. 14C), LAPC4 (FIG. 14D) cells, and AR-negative DU145 (FIG. 14E) and PC3 (FIG. 14F) cells. Cells were plated in 12-well plates at 2,500 cell per well in RPMI 1640 complete medium. After 24 hrs, the cells were treated with SID 3712502 at the indicated concentrations for 48 hrs and BrdU incorporation was assayed according to manufacturer's instructions (Invitrogen BrdU staining kit; catalog #: 93-3943). The percentage of BrdU-positive cells was determined and then normalized to generate relative BrdU index. Ctrl=DMSO control.

[1] = tested on: C4-2, LNCaP, LAPC-4, PC3 and COS-1 cell lines; experiment: Cytotoxicity in a panel of cultured cell lines
Description: The screen identified ˜30 candidate small molecules that can disrupt GFP-AR nuclear localization in the C4-2 stably-transfected cell line. They were tested further to verify they can indeed disrupt AR nuclear localization in C4-2 cells and to determine whether the inhibition of nuclear localization of GFP-AR is mediated through a general inhibition of nuclear import machinery. […] Also, the candidate small molecules were tested for their cytotoxicity using a panel of cultured cell lines.
Once the candidate small molecules were identified, they were tested if they indeed can inhibit androgen-independent nuclear localization of GFP-AR and endogenous AR in the C4-2 cells. Also, these agents were tested to see if they are cytotoxic in several different cell lines, including the AR-positive prostate cancer cell lines C4-2, LNCaP, LAPC-4 and AR-negative cell lines PC3 and COS-1 (FIG. 8). These assays led to the identification of 3 agents that specifically target androgen-independent AR nuclear localization in prostate cancer cells and have minimal cytotoxicity on other types of cells.

AR(1-665) = experiment: PSA-luciferase reporter, AR(1-665) lacking LBD, PC3 cells; conditions: 10 μM, 24 hours
Description: (§2) FIGS. 13A-C. Effect of SID 3712502 on the expression of AR and PSA in 22Rv1 (FIG. 13A) cells. […] The cells in RPMI 1640 complete medium were treated with SID 3712502 or vehicle DMSO at the indicated concentrations (uM) for 48 h. The cells were then harvested in RIPA buffer for Western blot analysis using antibodies for AR, PSA, and GAPDH. GAPDH was included as a loading control. FIG. 13B. SID 3712502 inhibits AR transactivation of PSA-luciferase reporter. C4-2 cells were transfected with PSA6.1-Luc, GFP-AR, and pRL-CMV and then treated with indicated doses of SID 3712502 for 24 hours. FIG. 13C. SID 3712502 inhibits transactivation of PSA-luciferase reporter by AR(1-665), which lacks LBD. PC3 cells were transfected with GFP-NAR and PSA6.1 Luc overnight prior to treatment with 10 μM SID 3712502 (SID) or DMSO (C) for 24 hours. For luciferase assays, cells were lysed with passive lysis buffer (Promega) and both Firefly and Renilla luciferase activities were read using a Dual-Luciferase Reporter Assay kit (Promega) on a LmaxII384 luminometer (Molecular Devices). Firefly luciferase values were normalized to Renilla (pRL-CMV) or protein of cell lysates. Plotted values represent averaged normalized Firefly luciferase activities, each performed in triplicate, relative to DMSO control. One-way ANOVA was performed with a Bonferroni's Multiple Comparison posttest *** p<0.0001 (C). […]

[2] = tested on: AR transactivation of PSA-luciferase reporter; experiment: PSA-luciferase reporter, full-length AR, C4-2 cells; conditions: 24 hours
Description: as §2

PC3 cells = experiment: Cell survival, crystal violet staining, PC3; conditions: 48 hrs
Description: FIGS. 8A and 8B. Effect of SID 14730725 and SID 3712502 on survival of PC3 (FIG. 8A) and C4-2 cells (FIG. 8B). PC3 or C4-2 cells were plated in 12-well plates at 2,500 cell per well in RPMI 1640 complete medium. After 24 hrs, the cells were treated with SID 14730725 or SID 3712502 at the indicated concentrations for 48 hrs. The wells were washed with PBS thrice and fixed in 0.5% crystal Violet in methanol. C=control; treated with vehicle DMSO.

GFP-ER = target: T1, GFP-ER (Homo sapiens, UniProt P03372); experiment: GFP-ER nuclear localization in transfected C4-2 cells; conditions: 24 hours
T1 construct: expressed in transfected cells; host or cells: C4-2
Description: FIG. 7. The effect of SID 14730725 and SID 3712502 on nuclear localization of GFP-ER (Top panel) and GFP-GR (Bottom panel) in C4-2 cells. C4-2 cells were transfected with GFP-ER or GFP-GR overnight. The following day the cells were treated with different concentrations (uM) of the small molecules. The cells transfected with GFP-GR were co-treated with 0.5 μM Dexamethasone. Cells were imaged 24 hours after the treatment with the small molecules.

C4-2 cells = experiment: BrdU incorporation, C4-2; conditions: C4-2, 48 hrs
Description: as §1

LNCaP cells = experiment: BrdU incorporation, LNCaP; conditions: 48 hrs
Description: as §1

T1 sequence (P03372 whole entry): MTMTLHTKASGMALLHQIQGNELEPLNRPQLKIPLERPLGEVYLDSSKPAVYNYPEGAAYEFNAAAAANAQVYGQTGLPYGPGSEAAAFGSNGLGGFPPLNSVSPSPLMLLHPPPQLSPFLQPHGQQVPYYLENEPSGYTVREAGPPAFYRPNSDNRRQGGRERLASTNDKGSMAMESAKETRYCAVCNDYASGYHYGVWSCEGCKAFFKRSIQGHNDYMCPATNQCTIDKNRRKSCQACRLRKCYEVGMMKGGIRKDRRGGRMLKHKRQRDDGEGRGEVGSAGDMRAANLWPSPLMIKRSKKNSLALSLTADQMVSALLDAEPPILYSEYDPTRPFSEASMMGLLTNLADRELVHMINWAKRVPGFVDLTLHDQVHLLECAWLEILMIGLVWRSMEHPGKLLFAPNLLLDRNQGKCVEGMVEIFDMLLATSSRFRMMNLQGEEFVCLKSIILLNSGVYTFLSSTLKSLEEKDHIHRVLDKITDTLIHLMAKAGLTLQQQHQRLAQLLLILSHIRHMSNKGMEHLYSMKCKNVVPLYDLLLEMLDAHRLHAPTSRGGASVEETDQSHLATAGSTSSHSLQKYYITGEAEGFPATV

## Cc1cccc(N2CCN(C(=O)CSCc3c(C)noc3C)CC2)c1C [SID 3712502, 2-[(3,5-dimethyl-1,2-oxazol-4-yl)methylsulfanyl]-1-[4-(2,3-dimethylphenyl)piperazin-1-yl]ethanone]
22Rv1 cells
  proliferation (BrdU incorporation): inhibited the proliferation
[1]
  cytotoxicity to various cultured cells: little or no cytotoxicity
AR(1-665)
  transactivation activity of AR(1-665) (PSA-luciferase): can inhibit the transactivation activity
[2]
  transactivation activity of full-length AR (PSA-luciferase): can inhibit the transactivation activity
PC3 cells
  cytotoxicity: little or no cytotoxicity
GFP-ER
  localization of GFP-ER: no effect
C4-2 cells
  proliferation (BrdU incorporation): inhibited the proliferation
LNCaP cells
  proliferation (BrdU incorporation): inhibited the proliferation
